Assay results as given in publication PMC8368996, “Interactions between AMOT PPxY motifs and NEDD4L WW domains function in HIV-1 release” (The Journal of Biological Chemistry, 2021).
Peptide text beside a SMILES is read from it. * marks the point of attachment. X1 = O=C1OC2(c3cc(F)c(O)cc3Oc3cc(O)c(F)cc32)c2ccc(N3C(=O)CC(*)C3=O)cc21

Biological target: T1, NEDD4L WW3 (Homo sapiens, UniProt Q96PU5)
T1 construct: -WW3(497 -530); GST (N, cleaved yes); made in house; host or cells: E. coli Rosetta-pLysS
Assay: Fluorescence polarization (FP) anisotropy binding of labeled AMOT PPxY peptides to recombinant NEDD4L WW3 domain
Conditions: for fold reduction of NEDD4L WW3 binding affinity relative to the wt peptide: FP Kd ratio mutant / wt
Procedure: Each dilution series was performed at least in triplicate. […] The mean Kd values are reported as mean ± SEM.

T1 sequence (Q96PU5 497-530 limits assumed): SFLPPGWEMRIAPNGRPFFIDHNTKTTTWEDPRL

SMILES	fold reduction of NEDD4L WW3 binding affinity relative to the wt peptide [fold]	fold tighter binding than any other pairwise AMOT PPxY-NEDD4L WW interaction (PPxY1-WW3 compared with the 11 other pairs of Fig. 3E)
CSCC[C@H](NC(=O)CNC(=O)[C@H](CCCCN)NC(=O)[C@H](Cc1ccccc1)NC(=O)[C@@H]1CCCN1C(=O)[C@H](Cc1ccc(O)cc1)NC(=O)[C@H](CCC(=O)O)NC(=O)[C@@H]1CCCN1C(=O)[C@H](CC(C)C)NC(=O)[C@@H]1CCCN1C(=O)CNC(=O)[C@H](CCCNC(=N)N)NC(=O)[C@H](Cc1c[nH]cn1)NC(=O)[C@H](CCC(=O)O)NC(=O)[C@H](CCSC)NC(=O)[C@@H](N)CSC1CC(=O)N(c2ccc3c(c2)C(=O)OC32c3cc(F)c(O)cc3Oc3cc(O)c(F)cc32)C1=O)C(N)=O (stereo partly shown) [(P/L)PPxY2] (H-C(X1)MEHRGPLPEYPFKGM-NH2; N-terminus and C-terminus assumed)	2.8	
CSCC[C@H](NC(=O)[C@@H](N)CSC1CC(=O)N(c2ccc3c(c2)C(=O)OC32c3cc(F)c(O)cc3Oc3cc(O)c(F)cc32)C1=O)C(=O)N[C@@H](CCC(N)=O)C(=O)N[C@@H](CC(N)=O)C(=O)N[C@@H](CC(N)=O)C(=O)N[C@@H](CCC(=O)O)C(=O)N[C@@H](CCC(=O)O)C(=O)N[C@@H](CC(C)C)C(=O)N1CCC[C@H]1C(=O)N[C@H](C(=O)N[C@@H](Cc1ccc(O)cc1)C(=O)N[C@@H](CCC(=O)O)C(=O)N[C@@H](CCC(=O)O)C(=O)N[C@@H](CCCCN)C(=O)N[C@@H](CCCCN)C(=O)N[C@H](C(N)=O)C(C)C)[C@@H](C)O (stereo partly shown) [A112K] (H-C(X1)MQNNEELPTYEEKKV-NH2; N-terminus and C-terminus assumed)	8	
CSCC[C@H](NC(=O)[C@@H](N)CSC1CC(=O)N(c2ccc3c(c2)C(=O)OC32c3cc(F)c(O)cc3Oc3cc(O)c(F)cc32)C1=O)C(=O)N[C@@H](CCC(N)=O)C(=O)N[C@@H](CC(N)=O)C(=O)N[C@@H](CC(N)=O)C(=O)N[C@@H](CCCCN)C(=O)N[C@@H](CCCCN)C(=O)N[C@@H](CC(C)C)C(=O)N1CCC[C@H]1C(=O)N[C@H](C(=O)N[C@@H](Cc1ccc(O)cc1)C(=O)N[C@@H](CCC(=O)O)C(=O)N[C@@H](CCC(=O)O)C(=O)N[C@@H](C)C(=O)N[C@@H](CCCCN)C(=O)N[C@H](C(N)=O)C(C)C)[C@@H](C)O (stereo partly shown) [E104K/E105K] (H-C(X1)MQNNKKLPTYEEAKV-NH2; N-terminus and C-terminus assumed)	6	
CSCC[C@H](NC(=O)[C@@H](N)CSC1CC(=O)N(c2ccc3c(c2)C(=O)OC32c3cc(F)c(O)cc3Oc3cc(O)c(F)cc32)C1=O)C(=O)N[C@@H](CCC(N)=O)C(=O)N[C@@H](CC(N)=O)C(=O)N[C@@H](CC(N)=O)C(=O)N[C@@H](CCC(=O)O)C(=O)N[C@@H](CCC(=O)O)C(=O)N[C@@H](CC(C)C)C(=O)N1CCC[C@H]1C(=O)N[C@H](C(=O)N[C@@H](Cc1ccc(O)cc1)C(=O)N[C@@H](CCC(=O)O)C(=O)N[C@@H](CCC(=O)O)C(=O)N[C@@H](C)C(=O)N[C@@H](CCCCN)C(=O)N[C@H](C(N)=O)C(C)C)[C@@H](C)O (stereo partly shown) [PPxY1] (H-C(X1)MQNNEELPTYEEAKV-NH2; N-terminus and C-terminus assumed)		more than 5 fold
